# Measured values published in patent US20260216139A1, “METHOD FOR TREATING NEUROLOGICAL DISEASES THROUGH GLIAL PRUNING REGULATION” (Fred Hutchinson Cancer Center, priority 2022, published 2026).
# Tested on: C. elegans
# Assay: Effects of exposure to drugs on glial pruning: number of engulfed AFD neuron fragments in AMsh glia
# Assay type: in vivo
# Conditions: for number of engulfed fragments of neuron within glia: pdr-1 mutant animals, upon drug exposure; for suppression of defects, judged by the number of engulfed fragments in glia: pdr-1 single or pdr-1
# Protocol: C. elegans were cultured as known to one of skill in the art. Bristol N2 strain was used as wild type. For all experiments, animals were raised at 20° C. for at least two generations without starvation, picked as L4 larvae onto fresh plate, and assayed 1 day later unless otherwise noted. For analysis of glial engulfment, animals were crossed to the strain dnals13, an integrated transgene bearing gcy-23: GFP recombineered fosmid outcrossed to Bristol N2 four times. To control environmental variations, worms were raised from egg-lay in a humidity and temperature-controlled environment until imaging. Worms were staged at the L4 stage using vulval anatomy. Day 1 adult animals were staged at the L4 stage and then grown for approximately 24 more hours (unless otherwise stated) in the controlled environment. Worms were imaged and glial engulfment was analyzed as described in the methods below.
# Worms were immobilized with 40 mM sodium azide. Images were collected on a Deltavision® Elite RoHS wide-field deconvolution system with Ultimate Focus® (GE), a PlanApo 60×/1.42 NA or OLY 100×/1.40 NA oil-immersion objective, and a DV Elite CMOS Camera. Images of the AFD puncta in the region of the AMsh were taken at 100× using FITC with 100% transmission and 0.0405 ms exposure with a reference image taken at 5% POL in the middle of the sample. For worms expressing an extrachromosomal array tagged with mCherry, images were also taken using an A594 filter with 0.02 ms exposure to ensure expression of the array in the cell of interest. Images were then deconvolved and cropped to 1024×1024 in the area of interest. Next, images were processed using FIJI®. All images were converted to 8-bit and brightness and contrast were set with a minimum of 0 and a maximum of 50. Next, a rectangle is drawn around the region of the AMsh adjacent to, but not including, the AFD cell body and excluding any area along the AFD process. Next, the image is cropped to this region, and the tool “3D Objects Counter” is run with the following settings: threshold=35; size min.=5 max.=7225848; exclude objects side. This number of puncta is then verified by eye and recorded.
# Data and statistics were either graphed and analyzed using Prism9 or by using R. Statistical analysis in R was conducted using the open-source data visualization package ggplot2. Data is represented in a boxplot with each point representing the number of puncta engulfed within the cell body of one AMsh glia in a single worm. Dots represent the biological replicate in which the individual worm was imaged unless otherwise specified to represent genotype.
# 4 mL standard C. elegans nematode growth medium (NGM) was aliquoted into 35 mm Petri dishes and stored at 4 degrees Celsius. Plates were warmed to room temperature and seeded with 100 μL of OP50 and dried overnight. Plates were then spotted with 100 μL of diluted SP600125 (in DMSO), Apocynin (in DMSO), or EHop-016 (in DMSO) for a final concentration of 0.5% or 1% DMSO (as labeled) and a final concentration of the treatment drug of 50 μM (unless otherwise specified). Spot treatment was allowed to dry before L1 staged C. elegans were transferred onto the plate. Worms were then imaged approximately 2 days later. Worms were staged at this time by vulval anatomy, body size, and the presence or absence of eggs. […] At this time, worms were imaged, and glial engulfment levels were analyzed.
Structure (SMILES),number of engulfed fragments of neuron within glia,"suppression of defects, judged by the number of engulfed fragments in glia (pink-1 double mutant animals)",also measured
CC(C)C[C@@H](C=O)NC(=O)[C@H](CC(C)C)NC(=O)[C@H](CC(C)C)NC(=O)OCc1ccccc1 (racemic) [MG-132],reduction,,
CCn1c2ccccc2c2cc(Nc3ccnc(NCCCN4CCOCC4)n3)ccc21 (racemic) [EHOP-016],,did not suppress,"pruning (pdr-1, pink-1 double mutant animals, 10 μM): increased; pdr-1 defect (pruning) (pdr-1 lesion animals (FIG. 21C right), 10 μM): increased; pruning (wild type animals, 10 μM): increase"
"COc1cc(C(C)=O)ccc1O (racemic) [Apocynin, acetovanillone]",,suppress,
CO[C@H]1C[C@@H]2CC[C@@H](C)[C@@](O)(O2)C(=O)C(=O)N2CCCC[C@H]2C(=O)O[C@H]([C@H](C)C[C@@H]2CC[C@@H](O)[C@H](OC)C2)CC(=O)[C@H](C)/C=C(\C)[C@@H](O)[C@@H](OC)C(=O)[C@H](C)C[C@H](C)/C=C/C=C/C=C/1C [rapamycin],no change,,
O=[N+]([O-])c1ccc(O)c([N+](=O)[O-])c1 [DNP],no change,,
